Test results: ChEMBL document CHEMBL1148048, “Two new tryptophan-derived alkaloids from the Okinawan marine sponge Aplysina sp” (J Nat Prod, 1994)
Converted amounts (≈) assume the structure as drawn.

Key:
L1210 = experiment: Cytotoxicity against mouse L1210 cells; assay type: functional, cell-based
KB [1] = experiment: Cytotoxicity against human KB cells; assay type: functional, cell-based
KB [2] = experiment: Cytotoxicity against human KB cells at 20 ug/ml; assay type: functional

Structure (SMILES)	IC50 (L1210)	IC50 (KB [1])	inhibition at 20 µg/mL (KB [2])
CN1C(=N)N(C)/C(=C/c2c[nH]c3ccccc23)C1=O [APLYSINOPSIN]	2.3 µg/mL (≈ 9.04 µM)	6.4 µg/mL (≈ 25.2 µM)	
C/N=C1\NC(=O)/C(=C\c2c[nH]c3ccccc23)N1C [ISOPLYSIN A]	11.5 µg/mL (≈ 45.2 µM)		31%
C/N=C1\N(C)C(=O)/C(=C\c2c[nH]c3ccccc23)N1C [METHYLAPLYSINOPSIN]	3.5 µg/mL (≈ 13 µM)	6.7 µg/mL (≈ 25 µM)	
